Broadly, the MIC is the lowest concentration that inhibits growth of the organism. Lower therefore signals inhibition by little substance. What is called HC50 is the concentration giving 50% haemolysis.

The source of these data is ChEMBL document CHEMBL6092194, “Development of membrane-targeting chalcone derivatives as antibacterial agents against multidrug-resistant bacteria” (Eur J Med Chem, 2024).

Calls of active or inactive are those of the source. No cut-off for these calls is given here. Where only a bound is given, the exact number is not on record here.

Data set [1] has as its system Staphylococcus aureus. In words: Antibacterial activity against penicillin-resistant Staphylococcus aureus ATCC43300 by broth microdilution assay. The data set is classed as functional.
The next data set concerns Acinetobacter baumannii. In words: Antibacterial activity against Acinetobacter baumannii ATCC19606 by broth microdilution assay. The data set is classed as functional. For orientation: Broth dilution looks for growth in wells or tubes with falling amounts of substance.
Data set [2] can be described thus: Hemolytic activity in red blood cells (unknown origin). The data set is classed as toxicity, cell-based, Erythrocyte.
Data set [3] in a line: Toxicity in BALB/c mouse assessed as survival rate at 20 to 50 mg/kg, ip administered for 7 days relative to control. The data set is classed as organism-based. Particulars: in vivo, dose 20-50 mg/kg, time 7 day.
The subject of data set [4] is Staphylococcus aureus. The data set can be described thus: Antibacterial activity against Staphylococcus aureus ATCC43300 infected in sepsis mouse model assessed as log reduction in bacterial load in spleen at 10 mg/kg pre-infected with bacteria for 1 hrs followed by compound administration at 12 hrs interval for 2 days relative to control. Particulars: time 2 day. The class given is functional.

Data set [5] deals with Staphylococcus aureus. The data set can be described thus: Antibacterial activity against Staphylococcus aureus ATCC43300 infected in sepsis mouse model assessed as log reduction in bacterial load in blood at 10 mg/kg pre-infected with bacteria for 1 hrs followed by compound administration at 12 hrs interval for 2 days relative to control. The class given is functional. The conditions noted are these: time 2 day.

For data set [6], the system named is Staphylococcus aureus. In words: Antibacterial activity against Staphylococcus aureus ATCC43300 infected in sepsis mouse model assessed as reduction in kidney damage at 5 to 10 mg/kg pre-infected with bacteria for 1 hrs followed by compound administration at 12 hrs interval for 2 days by H and E staining based analysis. The data set is classed as functional, organism-based. The conditions noted are these: dose 5-10 mg/kg, time 2.0 day.

For another data set, the system named is Escherichia coli. In words: Ratio of MBC for Escherichia coli ATCC25922 in presence of 50% serum to MBC for Escherichia coli ATCC25922 in Mueller Hinton Broth. The class given is functional.

As for `CCCCCCOc1cc[n+](CCCOc2ccc(/C=C/C(=O)c3ccc(OCCC[n+]4ccc(OCCCCCC)cc4)cc3)cc2)cc1.[Br-].[Br-]`, the minimal inhibitory concentration (MIC) against Staphylococcus aureus [1] stood at 0.5 µg/mL; in the data set on Acinetobacter baumannii, 16 µg/mL. In addition, the HC50 in data set [2] came to 329 µg/mL. Also, in data set [3], the survival at 168 h stood at 100%. Also, the “log(activity)” value amounted to 1.52 with Staphylococcus aureus [4] and 1.61 with Staphylococcus aureus [5]. The outcome in the data set with Staphylococcus aureus [6] was Active. Also, the Ratio with Escherichia coli is under 2.
